Assays:
[1] = system: p-4E-BP1-T70 in KPL4 breast tumour cell line; test: Cellular p-4E-BP1-T70 assay; type: cell-based; settings: 2 hours treatment, read-out: P4EBP1-T70 median IC50
Protocol: The molecular mechanism of action was investigated in a set of experiments to assess the inhibition of the PI3K-AKT-mTOR pathway in responsive cell lines such as KPL4 breast tumour cell line (PIK3CAH1047R, HER20/E and hormone independent). The phospho-substrates of PI3K-AKT-mTOR axis were used as the read-outs to reflect pathway inhibition. Cells were seeded at 60-80% confluency per well in 96-well cell culture plates. After overnight incubation at 37° C. 5% CO2, cells were treated with compounds and vehicle at 37° C. for 2 hours. Thereafter, cells were lysed in 150 μl lysis buffer and the levels of phospho-AKT at T308 and S473 and p-4E-BP1 at T70 sites were determined with the corresponding AlphaScreen® SureFire® assay kits (Perkin Elmer: 4E-BP1 Assay Kit Cat # TRG4E2S10K; Akt 1/2/3 p-Ser 473 #TGRA4S500 and Akt 1/2/3 p-Thr 308 #TGRA3S500 as well as IgG detection Kit #6760617M) as described in the manuals. All measurements where at least done in duplicates and confirmed by independent repetition.

[2] = target: His-tagged human recombinant kinase full-length Akt1 (Homo sapiens (Human), UniProt P31749); test: Akt1 kinase assay (TR-FRET); type: biochemical; settings: 10 μM ATP; read-out: Akt1, median IC50
Chain of His-tagged human recombinant kinase full-length Akt1 (P31749 whole entry): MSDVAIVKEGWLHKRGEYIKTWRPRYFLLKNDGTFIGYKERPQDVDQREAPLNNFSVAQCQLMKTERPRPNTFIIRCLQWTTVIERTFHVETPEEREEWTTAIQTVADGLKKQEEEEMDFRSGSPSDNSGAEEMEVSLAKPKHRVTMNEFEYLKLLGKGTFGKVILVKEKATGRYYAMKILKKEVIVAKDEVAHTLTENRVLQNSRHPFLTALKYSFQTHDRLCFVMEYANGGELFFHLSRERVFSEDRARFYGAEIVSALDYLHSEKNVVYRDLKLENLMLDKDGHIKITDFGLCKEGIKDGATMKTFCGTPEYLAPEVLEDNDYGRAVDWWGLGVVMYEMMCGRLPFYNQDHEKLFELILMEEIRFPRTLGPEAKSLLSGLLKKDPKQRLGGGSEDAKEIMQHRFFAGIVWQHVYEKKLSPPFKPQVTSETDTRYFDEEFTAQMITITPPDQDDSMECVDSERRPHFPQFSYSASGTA
Method in brief: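 Full-length His-tagged Akt1 (about 0.05 ng/μl final) preincubated 15 min at 22 °C with compound in 50 mM TRIS/HCl pH 7.5, 5 mM MgCl2, 1 mM DTT, 0.02% Triton X-100; biotinylated peptide substrate. Phosphopeptide detected by TR-FRET (Eu-chelate antibody to streptavidin-XL665) after 1 h at 22 °C.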

[3] = system: p-AKT1/2/3-S473 in KPL4 breast tumour cell line; test: Cellular p-AKT1/2/3-S473 assay; type: cell-based; settings: KPL4 breast tumour cell line, 2 hours treatment; read-out: pAKT-S743 median IC50
Method in brief: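 KPL4 cells (PIK3CA H1047R, HER2 0/E, hormone independent) were seeded at 60–80% confluency, cultured overnight, then exposed to compound for 2 h at 37 °C. pAKT-S473 and total AKT measured together by MSD Akt Duplex on 20 µg extract; pAKT expressed as % of total AKT, at least duplicate with independent repeats.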

[4] = system: KPL-4 breast cancer cell line; test: Tumor cell proliferation assay (CellTiter-Glo, 72 h), KPL-4; type: cell-based; settings: KPL4, 72h drug exposure
Method in brief: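 KPL-4 cells were treated with compound for 72 h at 37°C. Viability was measured as ATP by CellTiter-Glo luminescence, with a separate t=0 plate read after overnight attachment. A reference compound was run as standard.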

[5] = system: MCF7; test: Tumor cell proliferation assay (CellTiter-Glo, 72 h), MCF7; type: cell-based; settings: Homo sapiens, 72h drug exposure
Protocol: Compounds were tested in a cell-based assay that measures the capacity of the compounds to inhibit tumour cell proliferation following a 72h drug exposure. Cell viability is determined using CellTiter-Glow® (CTG, Promega, cat# G7571/2/3). The CellTiter-Glo® Luminescent Cell Viability Assay is a homogeneous method to determine the number of viable cells in culture. Detection is based on using the luciferase reaction to measure the amount of ATP from viable cells. The amount of ATP in cells correlates with cell viability. Within minutes after a loss of membrane integrity, cells lose the ability to synthesize ATP, and endogenous ATPases destroy any remaining ATP; thus the levels of ATP fall precipitously.
Cells were plated at 3000-5000 cells/well (depending on the cell lines) in 90 μL growth medium on MTPs (Corning; #3603, black plate, clear flat bottom). For each cell line assayed, cells were plated onto a separate plate for determination of […] at t=0 hour and t=72 hour time points. Following overnight incubation at 37° C., chemiluminescence values for the t=0 samples were determined after adding 10 μl medium and 100 μl CTG solution according to manufacture protocol. Plates for the t=72 hour time points were treated with compounds diluted into growth medium at ten times final concentration added in 10 μL to the cell culture plate. Cells were then incubated for 72 hours at 37° C. Chemiluminescence values for the t=72 hour samples were determined. […] Experiments were controlled using a reference compound as standard.

Row | SMILES | IC50 [1] | IC50 [2] | IC50 [3] | IC50 [4] | IC50 [5]
1 | N#Cc1ccc2nc(-c3ccc(C4(N)CCC4)cc3)c(-c3ccccc3)n2c1 [Example 1-10] | 2030 nM | 287 nM | 138 nM | 1600 nM | –
2 | Cc1ccc2nc(-c3ccc(C4(N)CCC4)cc3)c(-c3ccccc3)n2c1 [Example 2-7] | 3960 nM | 203 nM | 487 nM | 1900 nM | –
3 | NC1(c2ccc(-c3nc4cc(F)ccn4c3-c3ccccc3)cc2)CCC1 [Example 2-67] | 2000 nM | 64 nM | 195 nM | 1700 nM | 1300 nM
4 | Cc1ccn2c(-c3ccccc3)c(-c3ccc(C4(N)CCC4)cc3)nc2c1Cl [Example 2-74] | 1400 nM | – | 251 nM | 1400 nM | 1600 nM
5 | CCOC(=O)c1cc(Br)c2nc(-c3ccc(C4(N)CCC4)cc3)c(-c3ccccc3)n2c1 [Example 2-77] | 1720 nM | – | 474 nM | 8100 nM | 1700 nM
6 | COc1ccn2c(-c3ccccc3)c(-c3ccc(C4(N)CCC4)cc3)nc2c1C#N [Example 2-79] | 370 nM | – | 48 nM | 900 nM | 500 nM
7 | Cc1cc(Br)c2nc(-c3ccc(C4(N)CCC4)cc3)c(-c3ccccc3)n2c1 [Example 2-83] | 615 nM | – | 189 nM | 1800 nM | 2000 nM
8 | Cc1c(Br)cn2c(-c3ccccc3)c(-c3ccc(C4(N)CCC4)cc3)nc2c1C [Example 2-84] | 3140 nM | – | 1340 nM | 2200 nM | 1600 nM
9 | NC1(c2ccc(-c3nc4c(Br)cc(C(F)(F)F)cn4c3-c3ccccc3)cc2)CCC1 [Example 2-86] | 2510 nM | – | 1200 nM | 2000 nM | 1800 nM
10 | Cc1c(Cl)cn2c(-c3ccccc3)c(-c3ccc(C4(N)CCC4)cc3)nc2c1-c1ccc(F)cc1 [Example 2-87] | 10000 nM | – | 7530 nM | 3700 nM | 2100 nM
11 | COc1cncc(-c2cc(C)cn3c(-c4ccccc4)c(-c4ccc(C5(N)CCC5)cc4)nc23)c1 [Example 2-91] | 1610 nM | – | 678 nM | 2000 nM | 1800 nM
12 | NC(=O)c1cc(Br)cn2c(-c3ccccc3)c(-c3ccc(C4(N)CCC4)cc3)nc12 [Example 2-94] | 292 nM | – | 58 nM | 1800 nM | 1700 nM
13 | COc1cc(-c2cn[nH]c2)cn2c(-c3ccccc3)c(-c3ccc(C4(N)CCC4)cc3)nc12 [Example 13-0, 1-{4-[8-methoxy-3-phenyl-6-(1H-pyrazol-4-yl)-imidazo[1,2-a]pyridin-2-yl]-phenyl}-cyclobutylamine] | – | 81 nM | 89 nM | 1700 nM | 900 nM

Now from value to compound:

Row | IC50 [1] | IC50 [2] | IC50 [3] | IC50 [4] | IC50 [5] | SMILES
14 | 1960 nM | – | 582 nM | 2100 nM | 1700 nM | Cc1cc(Cl)cn2c(-c3ccccc3)c(-c3ccc(C4(N)CCC4)cc3)nc12 [Example 2-76]
15 | 1580 nM | – | 100 nM | 1900 nM | 1100 nM | NC1(c2ccc(-c3nc4c(Cl)cc(Cl)cn4c3-c3ccccc3)cc2)CCC1 [Example 2-78]
16 | 1860 nM | – | 912 nM | 2000 nM | 1800 nM | NC1(c2ccc(-c3nc4cc(Cl)c(Cl)cn4c3-c3ccccc3)cc2)CCC1 [Example 2-80]
17 | 3280 nM | – | 1020 nM | 2100 nM | 1700 nM | Cc1cc(Br)cn2c(-c3ccccc3)c(-c3ccc(C4(N)CCC4)cc3)nc12 [Example 2-82]
18 | – | 141 nM | 30 nM | 1300 nM | 600 nM | N#Cc1cc(Cl)c2nc(-c3ccc(C4(N)CCC4)cc3)c(-c3ccccc3)n2c1 [Example 15-0, 2-[4-(1-aminocyclobutyl)phenyl]-8-chloro-3-phenylimidazo[1,2-a]pyridine-6-carbonitrile]
